In paper PMC7380166, “How to Study the Metabolism of New Psychoactive Substances for the Purpose of Toxicological Screenings—A Follow-Up Study Comparing Pooled Human Liver S9, HepaRG Cells, and Zebrafish Larvae” (Frontiers in Chemistry, 2020):

Assays:
[1] = Monooxygenases activity screening, pHLM positive control; assay type: in vitro ADME, human; parameters: key: +, detected; –: −, not detected; settings: 25 μM 4F-MDMB-BINACA, 1 mg microsomal protein/ml, 30 min, 37°C, duplicate
Method: (§1) According to an established protocol (Wagmann et al., [2016]), the final volume per reaction tube was 50 μl with a final 4F-MDMB-BINACA concentration of 25 μM and enzyme concentrations of 50 pmol/ml for CYP1A2, CYP2A6, CYP2B6, CYP2C8, CYP2C9, CYP2C19, CYP2D6, CYP2E1, CYP3A4, and CYP3A5, respectively, or 0.25 mg protein/ml for FMO3. Furthermore, the reaction mixture contained 90 mM phosphate buffer (pH 7.4), superoxide dismutase (200 U/ml), isocitrate (5 mM), MgCl2 (5 mM), isocitrate dehydrogenase (0.5 U/ml), and NADP^+ (1.2 mM). The phosphate buffer was replaced with Tris buffer (90 mM) for incubations with CYP2A6 and CYP2C9 according to the manufacturer's recommendation. All incubations were performed at 37°C for 30 min and terminated by adding 50 μl of ice-cold acetonitrile. Afterwards, the mixtures were centrifuged at 18,407 × g for 5 min, 70 μl of the supernatants was transferred into autosampler vials, and 1 μl was injected onto the LC-HRMS/MS system. Positive control incubations were performed with pHLM (1 mg microsomal protein/ml), and negative controls without enzyme were prepared to identify non-metabolically formed compounds. All incubations were done in duplicate.

CYP2E1 = target: T1, CYP2E1 (Homo sapiens, UniProt P05181); test: Monooxygenases activity screening, CYP2E1; assay type: in vitro ADME; parameters: key: +, detected; –: −, not detected; settings: 25 μM 4F-MDMB-BINACA, 50 pmol/ml enzyme, 30 min, 37°C, duplicate
T1 construct: purchased Corning; host or cells: baculovirus-transfected insect cell microsomes (Supersomes)
Method: as §1

CYP2D6 = target: T2, CYP2D6 (Homo sapiens, UniProt P10635); test: Monooxygenases activity screening, CYP2D6; assay type: in vitro ADME; parameters: key: +, detected; –: −, not detected; settings: 25 μM 4F-MDMB-BINACA, 50 pmol/ml enzyme, 30 min, 37°C, duplicate
T2 construct: purchased Corning; host or cells: baculovirus-transfected insect cell microsomes (Supersomes)
Method: as §1

CYP3A4 = target: T3, CYP3A4 (Homo sapiens, UniProt P08684); test: Monooxygenases activity screening, CYP3A4; assay type: in vitro ADME; parameters: key: +, detected; –: −, not detected; settings: 25 μM 4F-MDMB-BINACA, 50 pmol/ml enzyme, 30 min, 37°C, duplicate
T3 construct: purchased Corning; host or cells: baculovirus-transfected insect cell microsomes (Supersomes)
Method: as §1

CYP2A6 = target: T4, CYP2A6 (Homo sapiens, UniProt P11509); test: Monooxygenases activity screening, CYP2A6; assay type: in vitro ADME; parameters: key: +, detected; –: −, not detected; settings: 25 μM 4F-MDMB-BINACA, 50 pmol/ml enzyme, 30 min, 37°C, duplicate
T4 construct: purchased Corning; host or cells: baculovirus-transfected insect cell microsomes (Supersomes)
T4 sequence (P11509 1-494): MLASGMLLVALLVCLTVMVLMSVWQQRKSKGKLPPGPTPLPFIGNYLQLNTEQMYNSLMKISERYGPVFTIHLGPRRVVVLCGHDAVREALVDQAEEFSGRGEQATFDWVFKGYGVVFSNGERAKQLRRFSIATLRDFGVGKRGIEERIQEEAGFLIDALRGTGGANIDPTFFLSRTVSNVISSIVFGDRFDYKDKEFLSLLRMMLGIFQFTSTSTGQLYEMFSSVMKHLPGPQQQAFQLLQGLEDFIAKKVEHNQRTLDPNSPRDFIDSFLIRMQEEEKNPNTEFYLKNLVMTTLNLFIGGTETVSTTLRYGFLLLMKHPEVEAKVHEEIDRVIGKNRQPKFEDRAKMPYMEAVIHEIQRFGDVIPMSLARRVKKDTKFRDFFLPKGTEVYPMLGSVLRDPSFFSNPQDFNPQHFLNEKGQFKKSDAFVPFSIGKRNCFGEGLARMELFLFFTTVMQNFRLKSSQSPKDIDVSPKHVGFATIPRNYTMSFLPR
Method: as §1

CYP3A5 = target: T5, CYP3A5 (Homo sapiens, UniProt P20815); test: Monooxygenases activity screening, CYP3A5; assay type: in vitro ADME; parameters: key: +, detected; –: −, not detected; settings: 25 μM 4F-MDMB-BINACA, 50 pmol/ml enzyme, 30 min, 37°C, duplicate
T5 construct: purchased Corning; host or cells: baculovirus-transfected insect cell microsomes (Supersomes)
Method: as §1

CYP2C9 = target: T6, CYP2C9 (Homo sapiens, UniProt P11712); test: Monooxygenases activity screening, CYP2C9; assay type: in vitro ADME; parameters: key: +, detected; –: −, not detected; settings: 25 μM 4F-MDMB-BINACA, 50 pmol/ml enzyme, 30 min, 37°C, duplicate
T6 construct: purchased Corning; host or cells: baculovirus-transfected insect cell microsomes (Supersomes)
Method: as §1

[2] = Esterases activity screening, pHLS9; assay type: in vitro ADME, human; parameters: key: +, detected; –: −, not detected; settings: 100 μM 4F-MDMB-BINACA, 0.2 mg protein/ml, duplicate
Method: (§2) Experiments were performed in accordance with a previous study (Meyer et al., [2015]) with minor modifications. The final volume per reaction tube was 100 μl with a final 4F-MDMB-BINACA concentration of 100 μM and enzyme concentration of 0.2 mg protein/ml for hCES1b, hCES1c, and hCES2. Incubations with pHLM and pHLS9 (0.2 mg protein/ml, each) were performed in a similar manner. Additionally, incubations with human plasma (50 μl pooled human plasma, 40 μl phosphate buffer, and 10 μl substrate) were performed. The reactions were started by adding the enzyme-containing preparation and terminated with an equal volume of ice-cold acetonitrile containing diazepam-d5 (100 μM) as an internal standard. Only plasma incubations were terminated by addition of a three-fold volume of ice-cold acetonitrile. The reaction mixtures were centrifuged at 18,407 × g for 15 min, and then supernatants were transferred to autosampler vials, and 5 μl was injected onto the LC-HRMS/MS system. Negative control incubations without enzyme were prepared to identify non-metabolically formed compounds. All incubations were done in duplicate.

HepaRG cells = test: Incubations with HepaRG cells, metabolite identification by LC-HRMS/MS; assay type: in vitro ADME, human; settings: for Absolute peak area, HepaRG [25 μM]: 25 μM parent NPS; for Absolute peak area, HepaRG [25 μM] / Absolute peak area, HepaRG [250 μM]: cell culture medium, one replicate of n = 3, n.d. = not detected; for Absolute peak area, HepaRG [250 μM]: 250 μM parent NPS
hCES1c = target: T7, hCES1c (Homo sapiens, UniProt P23141); test: Esterases activity screening, hCES1c; assay type: in vitro ADME; parameters: key: +, detected; –: −, not detected; settings: 100 μM 4F-MDMB-BINACA, 0.2 mg protein/ml, duplicate
T7 construct: purchased Corning
T7 sequence (P23141 18-566 isoform P23141-3 limits assumed): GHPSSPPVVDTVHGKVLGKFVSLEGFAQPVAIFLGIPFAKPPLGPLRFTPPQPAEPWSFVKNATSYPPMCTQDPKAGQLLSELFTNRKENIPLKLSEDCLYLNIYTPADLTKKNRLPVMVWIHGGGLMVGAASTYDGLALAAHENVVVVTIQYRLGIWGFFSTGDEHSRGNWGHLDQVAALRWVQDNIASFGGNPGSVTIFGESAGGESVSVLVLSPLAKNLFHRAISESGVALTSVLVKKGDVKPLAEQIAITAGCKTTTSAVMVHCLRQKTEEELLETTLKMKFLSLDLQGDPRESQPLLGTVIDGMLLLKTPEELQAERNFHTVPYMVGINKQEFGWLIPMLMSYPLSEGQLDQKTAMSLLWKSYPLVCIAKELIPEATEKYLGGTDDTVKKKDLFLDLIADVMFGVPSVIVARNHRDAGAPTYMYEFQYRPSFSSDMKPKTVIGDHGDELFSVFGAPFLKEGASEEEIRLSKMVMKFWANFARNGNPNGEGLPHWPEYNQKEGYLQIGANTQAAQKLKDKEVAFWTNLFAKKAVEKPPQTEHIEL
Method: as §2

[3] = plasma, human data for ephylone and 4F-PHP from Wagmann et al., [2019b]
[4] = urine, human data for ephylone and 4F-PHP from Wagmann et al., [2019b]

T6 sequence (P11712 whole entry): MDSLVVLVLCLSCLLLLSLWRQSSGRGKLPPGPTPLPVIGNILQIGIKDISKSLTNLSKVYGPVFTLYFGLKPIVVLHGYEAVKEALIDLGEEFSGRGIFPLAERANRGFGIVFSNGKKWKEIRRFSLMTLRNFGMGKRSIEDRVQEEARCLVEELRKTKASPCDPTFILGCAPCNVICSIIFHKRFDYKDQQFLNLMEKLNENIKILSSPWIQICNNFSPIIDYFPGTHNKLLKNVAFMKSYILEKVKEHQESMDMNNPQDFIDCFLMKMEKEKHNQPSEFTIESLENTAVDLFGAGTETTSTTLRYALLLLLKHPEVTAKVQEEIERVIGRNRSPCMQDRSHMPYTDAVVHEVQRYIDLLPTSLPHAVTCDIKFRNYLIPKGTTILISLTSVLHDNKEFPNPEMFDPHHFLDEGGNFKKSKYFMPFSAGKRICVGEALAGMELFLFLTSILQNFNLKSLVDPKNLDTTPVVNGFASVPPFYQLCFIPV
T5 sequence (P20815 whole entry): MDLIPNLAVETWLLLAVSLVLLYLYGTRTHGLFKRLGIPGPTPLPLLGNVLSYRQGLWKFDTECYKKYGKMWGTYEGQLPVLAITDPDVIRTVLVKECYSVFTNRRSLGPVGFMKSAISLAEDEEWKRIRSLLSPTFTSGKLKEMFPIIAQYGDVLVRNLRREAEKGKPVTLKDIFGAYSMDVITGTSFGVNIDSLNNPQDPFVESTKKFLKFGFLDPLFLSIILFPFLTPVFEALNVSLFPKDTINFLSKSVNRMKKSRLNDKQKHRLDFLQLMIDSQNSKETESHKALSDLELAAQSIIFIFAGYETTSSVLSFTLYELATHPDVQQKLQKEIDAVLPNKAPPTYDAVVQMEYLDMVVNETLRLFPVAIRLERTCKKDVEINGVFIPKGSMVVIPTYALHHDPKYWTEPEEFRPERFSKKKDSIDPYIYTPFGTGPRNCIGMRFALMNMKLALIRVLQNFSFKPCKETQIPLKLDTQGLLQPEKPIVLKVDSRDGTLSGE
T2 sequence (P10635 whole entry): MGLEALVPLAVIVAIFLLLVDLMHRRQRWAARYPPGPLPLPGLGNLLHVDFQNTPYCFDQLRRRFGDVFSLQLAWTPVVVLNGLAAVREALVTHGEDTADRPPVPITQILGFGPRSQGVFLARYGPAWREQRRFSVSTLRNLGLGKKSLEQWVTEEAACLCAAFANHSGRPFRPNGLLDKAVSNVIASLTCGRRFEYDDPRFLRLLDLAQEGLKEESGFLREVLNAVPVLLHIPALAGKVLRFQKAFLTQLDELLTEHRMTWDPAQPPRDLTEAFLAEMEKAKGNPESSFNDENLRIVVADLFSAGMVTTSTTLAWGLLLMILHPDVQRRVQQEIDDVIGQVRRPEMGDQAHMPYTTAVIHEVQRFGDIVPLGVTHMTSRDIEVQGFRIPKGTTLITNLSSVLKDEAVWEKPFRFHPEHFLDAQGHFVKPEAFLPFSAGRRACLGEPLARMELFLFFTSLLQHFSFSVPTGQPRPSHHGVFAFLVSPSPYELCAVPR
T3 sequence (P08684 whole entry): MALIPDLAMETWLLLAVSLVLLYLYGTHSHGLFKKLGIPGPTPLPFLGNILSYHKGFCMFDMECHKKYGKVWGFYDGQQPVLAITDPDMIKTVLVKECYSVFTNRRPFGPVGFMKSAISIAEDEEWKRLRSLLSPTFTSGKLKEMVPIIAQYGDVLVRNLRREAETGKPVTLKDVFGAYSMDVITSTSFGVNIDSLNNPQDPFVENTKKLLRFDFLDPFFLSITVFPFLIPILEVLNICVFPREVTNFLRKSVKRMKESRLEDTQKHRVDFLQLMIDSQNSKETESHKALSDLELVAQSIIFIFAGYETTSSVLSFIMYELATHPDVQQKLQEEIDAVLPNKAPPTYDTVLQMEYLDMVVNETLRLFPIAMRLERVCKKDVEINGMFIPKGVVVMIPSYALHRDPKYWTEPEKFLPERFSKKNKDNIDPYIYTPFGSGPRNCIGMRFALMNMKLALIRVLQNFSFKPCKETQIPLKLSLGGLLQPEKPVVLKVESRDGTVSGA
T1 sequence (P05181 whole entry): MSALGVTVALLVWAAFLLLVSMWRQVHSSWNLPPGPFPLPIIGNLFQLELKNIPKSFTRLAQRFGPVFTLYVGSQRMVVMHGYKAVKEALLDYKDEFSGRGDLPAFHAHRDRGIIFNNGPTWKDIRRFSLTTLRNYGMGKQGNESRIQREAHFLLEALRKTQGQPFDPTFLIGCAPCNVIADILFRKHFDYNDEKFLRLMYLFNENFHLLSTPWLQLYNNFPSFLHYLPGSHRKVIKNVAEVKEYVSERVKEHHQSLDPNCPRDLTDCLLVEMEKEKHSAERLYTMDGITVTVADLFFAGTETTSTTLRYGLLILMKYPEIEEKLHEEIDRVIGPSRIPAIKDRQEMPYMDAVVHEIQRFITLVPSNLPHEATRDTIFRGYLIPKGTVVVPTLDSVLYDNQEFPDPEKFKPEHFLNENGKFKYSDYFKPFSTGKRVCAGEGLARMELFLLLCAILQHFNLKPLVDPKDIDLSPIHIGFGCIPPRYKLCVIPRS

| Structure (SMILES) | Detection of metabolite in incubation with pHLM [1] | Detection of metabolite in incubation with CYP2E1 (CYP2E1) | Detection of metabolite in incubation with CYP2D6 (CYP2D6) | Detection of metabolite in incubation with CYP3A4 (CYP3A4) | Detection of metabolite in incubation with CYP2A6 (CYP2A6) | Detection of metabolite in incubation with CYP3A5 (CYP3A5) | Detection of metabolite in incubation with CYP2C9 (CYP2C9) | Detection of metabolite in incubation with pHLS9 [2] | Absolute peak area, HepaRG [25 μM] (HepaRG cells; 24 h) | Absolute peak area, HepaRG [250 μM] (HepaRG cells; 24 h) | Detection of metabolite in incubation with hCES1c (hCES1c) | Number of phase I metabolites detected, HepaRG [25 μM] (HepaRG cells; 25 μM, 24 h) | Number of phase II metabolites detected, HepaRG [25 μM] (HepaRG cells; 25 μM, 24 h) | Number of phase I metabolites detected, HepaRG [250 μM] (HepaRG cells; 250 μM, 24 h) | Number of phase II metabolites detected, HepaRG [250 μM] (HepaRG cells; 250 μM, 24 h) | Relative number of matches with the four most abundant signals in human plasma, HepaRG [25 μM] (HepaRG cells; [3]) [%] | Relative number of matches with the four most abundant signals in human plasma, HepaRG [250 μM] (HepaRG cells; [3]) [%] | Relative number of matches with the four most abundant signals in human urine, HepaRG [25 μM] (HepaRG cells; [4]) [%] | Relative number of matches with the four most abundant signals in human urine, HepaRG [250 μM] (HepaRG cells; [4]) [%] |
| --- | --- | --- | --- | --- | --- | --- | --- | --- | --- | --- | --- | --- | --- | --- | --- | --- | --- | --- | --- |
| COC(=O)[C@@H](NC(=O)c1nn(CCCCF)c2ccccc12)C(C)(C)CO [MB16] | + | – | – | – | – | + | – |  |  |  |  |  |  |  |  |  |  |  |  |
| CC(C)(C)C(NC(=O)c1nn(CCCCF)c2ccccc12)C(=O)O (centres unmarked) [MB8] | + | – | – | – | – | – | – | + | 5.16E+07 | 1.63E+09 | + |  |  |  |  |  |  |  |  |
| O=C(O)c1nn(CCCCF)c2ccccc12 [MB1] | + | – | – | – | – | – | – | + | 3.34E+04 | 3.82E+06 | + |  |  |  |  |  |  |  |  |
| COC(=O)[C@@H](NC(=O)c1nn(CCCCO)c2ccccc12)C(C)(C)C [MB11] | + | – | – | – | – | + | – |  | 9.30E+04 | 6.93E+06 |  |  |  |  |  |  |  |  |  |
| COC(=O)C(NC(=O)c1nn(CCCCF)c2ccccc12)C(C)(C)C (centres unmarked) [4F-MDMB-BINACA, methyl 2-[1-(4-fluorobutyl)-1H-indazole-3-carbonyl]amino-3,3-dimethylbutanoate] |  |  |  |  |  |  |  |  | 1.28E+08 | 5.18E+08 |  | 7 | 2 | 12 | 3 | 50 | 75 | 50 | 100 |
| COC(=O)[C@@H](NC(=O)c1n[nH]c2ccccc12)C(C)(C)C [MB4] | + | – | – | + | – | + | – |  |  | 9.55E+06 |  |  |  |  |  |  |  |  |  |
